Laboratory results as given in US4672068A, “Antihypertensive 1,4-dihydropyridines having a conjugated ester” (Fujirebio Kabushiki Kaisha, priority 1984, dated 1987).

Test system: Male spontaneously hypertensive rats (SHR), arterial blood pressure
Assay: Depressor response after intravenous administration (30 μg/kg), Table 1
Assay type: in vivo, rat
Conditions: for Duration: '90<' means greater than 90
Experimental: Male spontaneously hypertensive rats (SHR) which had mean arterial blood pressures higher than 140 mmHg were used for the experiments. Arterial blood pressure was measured through the catherized artery with a pressure transducer (MPU-0.5, manufactured by Nihon Kohden Kabushiki Kaisha). The catheter was inserted into the abdominal aorta via the median coccygcal artery of SHR under light ether anesthesia. The recordings were made on a rectigraph (manufactured by Sanei Sokki Kabushiki Kaisha). The 1,4-dihydropyridine derivatives prepared in the foregoing examples were administered with catheter which was inserted previously into the caudal vein or duodenum at least two hours after the operation. SHR were restrained with wire mesh cage immediately after the operation. Each derivative to be tested was dissolved in 1.5% PVP/ethanol, and then diluted with 0.9% saline or intravenous administration (30 μg/kg), or suspended in 5% gum arabic solution of intraduodenal administration (1 mg/kg).

| SMILES | The time to reach the lowest BP [min] | ΔBP (Maximum depressor response) [mmHg] | Duration [min] | halflife (number in parentheses in Duration column) [min] |
| --- | --- | --- | --- | --- |
| COC(=O)C1=C(C)NC(C)=C(C(=O)OCC=CC=Cc2cccs2)C1c1cccc([N+](=O)[O-])c1 (centres unmarked) [Example 51, Methyl 5-(2-thienyl)-2,4-pentadienyl 4-(3-nitrophenyl)-2,6-dimethyl-1,4-dihydropyridine-3,5-dicarboxylate] | 2.0 | 40 | > 90 | – |
| COC(=O)C1=C(C)NC(C)=C(C(=O)OCC=CC=Cc2ccco2)C1c1cccc([N+](=O)[O-])c1 (centres unmarked) [Example 52, Methyl 5-(2-furyl)-2,4-pentadienyl 4-(3-nitrophenyl)-2,6-dimethyl-1,4-dihydropyridine-3,5-dicarboxylate] | 2.0 | 55 | > 90 | – |
| COC(=O)C1=C(C)NC(C)=C(C(=O)OCC=CC=Cc2ccc3ccccc3c2)C1c1cccc([N+](=O)[O-])c1 (centres unmarked) [Example 53, Methyl 5-(2-naphthyl)-2,4-pentadienyl 4-(3-nitrophenyl)-2,6-dimethyl-1,4-dihydropyridine-3,5-dicarboxylate] | 18 | 25 | 90 | – |
| COC(=O)C1=C(C)NC(C)=C(C(=O)OCC=CC=Cc2cccc3ccccc23)C1c1cccc([N+](=O)[O-])c1 (centres unmarked) [Example 54, Methyl 5-(1-naphthyl)-2,4-pentadienyl 4-(3-nitrophenyl)-2,6-dimethyl-1,4-dihydropyridine-3,5-dicarboxylate] | 6.0 | 30 | > 90 | – |
| COC(=O)C1=C(C)NC(C)=C(C(=O)OC/C=C/C=C\c2ccccc2)C1c1cccc([N+](=O)[O-])c1 (centres unmarked) [Example 58, Methyl (2E,4Z)-5-phenyl-2,4-pentadienyl 4-(3-nitrophenyl)-2,6-dimethyl-1,4-dihydropyridine-3,5-dicarboxylate] | 1.9 | 64 | – | – |
| COC(=O)C1=C(C)NC(C)=C(C(=O)OC/C=C\C=C\c2ccccc2)C1c1cccc([N+](=O)[O-])c1 (centres unmarked) [Example 59, Methyl (2Z,4E)-5-phenyl-2,4-pentadienyl 4-(3-nitrophenyl)-2,6-dimethyl-1,4-dihydropyridine-3,5-dicarboxylate] | 1.8 | 56.7 | – | – |
| CCOC(=O)C1=C(C)NC(C)=C(C(=O)OCC=CC=Cc2ccccc2)C1c1cccc([N+](=O)[O-])c1 (centres unmarked) [Example 60, ethyl 5-phenyl-2,4-pentadienyl 4-(3-nitrophenyl)-2,6-dimethyl-1,4-dihydropyridine-3,5-dicarboxylate] | 4.0 | 60 | > 90 | – |
| COCCOC(=O)C1=C(C)NC(C)=C(C(=O)OCC=CC=Cc2ccccc2)C1c1cccc([N+](=O)[O-])c1 (centres unmarked) [Example 62, 2-methoxyethyl 5-phenyl-2,4-pentadienyl 4-(3-nitrophenyl)-2,6-dimethyl-1,4-dihydropyridine-3,5-dicarboxylate] | 2.0 | 60 | > 90 | – |
| COC(=O)C1=C(C)NC(C)=C(C(=O)OCC=Cc2ccccc2)C1c1cccs1 (centres unmarked) [Example 65, Cinnamyl methyl 4-(2-thienyl)-2,6-dimethyl-1,4-dihydropyridine-3,5-dicarboxylate] | 0.3 | 18 | – | – |
| CC=CC=CCOC(=O)C1=C(C)NC(C)=C(C(=O)OCC)C1c1cccc([N+](=O)[O-])c1 (centres unmarked) [Example 67, Ethyl 2,4-hexadienyl 4-(3-nitrophenyl)-2,6-dimethyl-1,4-dihydropyridine-3,5-dicarboxylate] | 1.0 | 72 | > 90 | 37 |
| CC=CC=CCOC(=O)C1=C(C)NC(C)=C(C(=O)OC(C)C)C1c1cccc([N+](=O)[O-])c1 (centres unmarked) [Example 68, Isopropyl 2,4-hexadienyl 4-(3-nitrophenyl)-2,6-dimethyl-1,4-dihydropyridine-3,5-dicarboxylate] | 1.4 | 60 | > 90 | 13 |
| CC=CC=CCOC(=O)C1=C(C)NC(C)=C(C(=O)OCCOC)C1c1cccc([N+](=O)[O-])c1 (centres unmarked) [Example 69, 2-methoxyethyl 2,4-hexadienyl 4-(3-nitrophenyl)-2,6-dimethyl-1,4-dihydropyridine-3,5-dicarboxylate] | 1.0 | 60 | > 90 | – |
| CC=CC=CCOC(=O)C1=C(C)NC(C)=C(C(=O)OC2CCCCC2)C1c1cccc([N+](=O)[O-])c1 (centres unmarked) [Example 70, Cyclohexyl 2,4-hexadienyl 4-(3-nitrophenyl)-2,6-dimethyl-1,4-dihydropyridine-3,5-dicarboxylate] | 7.0 | 65 | > 90 | – |
| CC=CC=CCOC(=O)C1=C(C)NC(C)=C(C(=O)OCC=Cc2ccccc2)C1c1cccc([N+](=O)[O-])c1 (centres unmarked) [Example 71, Cinnamyl 2,4-hexadienyl 4-(3-nitrophenyl)-2,6dimethyl-1,4-dihydropyridine-3,5-dicarboxylate] | 10 | 42 | > 90 | – |
| CC=CC=CCOC(=O)C1=C(C)NC(C)=C(C(=O)OC)C1c1cccc(C(F)(F)F)c1 (centres unmarked) [Example 72, methyl 2,4-hexadienyl 4-(3-trifluoromethylphenyl)-2,6-dimethyl-1,4-dihydropyridine-3,5-dicarboxylate] | 1.5 | 63 | > 120 | – |
| CC=CC=CCOC(=O)C1=C(C)NC(C)=C(C(=O)OCC=CC=CC)C1c1cccc([N+](=O)[O-])c1 (centres unmarked) [Example 73, bis(2,4-hexadienyl) 4-(3-nitrophenyl)-2,6-dimethyl-1,4-dihydropyridine-3,5-dicarboxylate] | 6.0 | 55 | > 120 | – |
| COC(=O)C1=C(C)NC(C)=C(C(=O)OC(C)C=CC2=C(C)CCCC2(C)C)C1c1cccc([N+](=O)[O-])c1 (centres unmarked) [Example 74] | 20 | 75 | > 120 | – |
